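How tested: cells in 96-well plates exposed to compound for 48 hours at five concentrations. At the GI50, growth is halved. Definition used: TGI = concentration required for complete inhibition of growth.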
Key:
Test in all cases: inhibition of tumour cell growth, NCI panel, 48 h
786-0 renal = test system: 786-0 renal
A498 renal = test system: A498 renal
A549 NSCLC = test system: A549 NSCLC
ACHN renal = test system: ACHN renal
BT-549 breast = test system: BT-549 breast
CAKI-1 renal = test system: CAKI-1 renal
CCRF-CEM leukemia = test system: CCRF-CEM leukemia
COLO 205 colon = test system: COLO 205 colon
DU-145 prostate = test system: DU-145 prostate
EKVX NSCLC = test system: EKVX NSCLC
HCC-2998 colon = test system: HCC-2998 colon
HCT-116 colon = test system: HCT-116 colon
HCT-15 colon = test system: HCT-15 colon
HL-60(TB) leukemia = test system: HL-60(TB) leukemia
HOP-62 NSCLC = test system: HOP-62 NSCLC
HOP-92 NSCLC = test system: HOP-92 NSCLC
HS 578T breast = test system: HS 578T breast
HT29 colon = test system: HT29 colon
IGROV1 ovarian = test system: IGROV1 ovarian
K-562 leukemia = test system: K-562 leukemia
KM12 colon = test system: KM12 colon
LOX IMVI melanoma = test system: LOX IMVI melanoma
M14 melanoma = test system: M14 melanoma
MALME-3M melanoma = test system: MALME-3M melanoma
MCF7 breast = test system: MCF7 breast
MDA-MB-231 breast = test system: MDA-MB-231 breast
MDA-MB-435 = test system: MDA-MB-435
MOLT-4 leukemia = test system: MOLT-4 leukemia
NCI-H226 lung = test system: NCI-H226 lung
NCI-H23 lung = test system: NCI-H23 lung
NCI-H460 lung = test system: NCI-H460 lung
NCI-H522 lung = test system: NCI-H522 lung
NCI/ADR-RES ovarian = test system: NCI/ADR-RES ovarian
OVCAR-3 ovarian = test system: OVCAR-3 ovarian
OVCAR-4 ovarian = test system: OVCAR-4 ovarian
OVCAR-5 ovarian = test system: OVCAR-5 ovarian
PC-3 prostate = test system: PC-3 prostate
RPMI-8226 leukemia = test system: RPMI-8226 leukemia
RXF 393 renal = test system: RXF 393 renal
SF-268 CNS = test system: SF-268 CNS
SF-295 CNS = test system: SF-295 CNS
SF-539 CNS = test system: SF-539 CNS
SK-MEL-2 melanoma = test system: SK-MEL-2 melanoma
SK-MEL-28 melanoma = test system: SK-MEL-28 melanoma
SK-MEL-5 melanoma = test system: SK-MEL-5 melanoma
SK-OV-3 ovarian = test system: SK-OV-3 ovarian
SN12C renal = test system: SN12C renal
SNB-75 CNS = test system: SNB-75 CNS
SR leukemia = test system: SR leukemia
SW-620 colon = test system: SW-620 colon
T-47D breast = test system: T-47D breast
TK-10 renal = test system: TK-10 renal
U251 CNS = test system: U251 CNS
UACC-257 melanoma = test system: UACC-257 melanoma
UACC-62 melanoma = test system: UACC-62 melanoma
UO-31 renal = test system: UO-31 renal

## COc1ccc2c(c1)c(-c1nc(-c3c[nH]c4ncccc34)cs1)cn2CCCCN1CCOCC1
786-0 renal
  GI50: 1780 nM
  TGI: 3.3 µM
A498 renal
  GI50: 217 nM
  TGI: 3.17 µM
A549 NSCLC
  GI50: 2230 nM
  TGI: 4.28 µM
ACHN renal
  GI50: 1790 nM
  TGI: 3.4 µM
BT-549 breast
  GI50: 3.74 µM
  TGI: 15.5 µM
CAKI-1 renal
  GI50: 1800 nM
  TGI: 3.79 µM
CCRF-CEM leukemia
  GI50: 2120 nM
  TGI: 5.1 µM
COLO 205 colon
  GI50: 1850 nM
  TGI: 3.58 µM
DU-145 prostate
  GI50: 3.07 µM
  TGI: 9.76 µM
EKVX NSCLC
  GI50: 2660 nM
  TGI: 9.69 µM
HCC-2998 colon
  GI50: 1910 nM
  TGI: 3.7 µM
HCT-116 colon
  GI50: 1780 nM
  TGI: 3.37 µM
HCT-15 colon
  GI50: 1960 nM
  TGI: 4.14 µM
HL-60(TB) leukemia
  GI50: 1940 nM
  TGI: 3.85 µM
HOP-62 NSCLC
  GI50: 1910 nM
  TGI: 4.08 µM
HOP-92 NSCLC
  GI50: 1670 nM
  TGI: 4.17 µM
HS 578T breast
  GI50: 2050 nM
  TGI: 5.82 µM
HT29 colon
  GI50: 2180 nM
  TGI: 3.94 µM
IGROV1 ovarian
  GI50: 2480 nM
  TGI: 8.28 µM
K-562 leukemia
  GI50: 1950 nM
  TGI: 3.99 µM
KM12 colon
  GI50: 1930 nM
  TGI: 3.96 µM
LOX IMVI melanoma
  GI50: 1710 nM
  TGI: 3.19 µM
M14 melanoma
  GI50: 1810 nM
  TGI: 3.62 µM
MALME-3M melanoma
  GI50: 1550 nM
  TGI: 3.34 µM
MCF7 breast
  GI50: 1560 nM
  TGI: 3.56 µM
MDA-MB-231 breast
  GI50: 1700 nM
  TGI: 3.5 µM
MDA-MB-435
  GI50: 1700 nM
  TGI: 3.17 µM
MOLT-4 leukemia
  GI50: 1860 nM
  TGI: 3.92 µM
NCI-H226 lung
  GI50: 2460 nM
  TGI: 9.91 µM
NCI-H23 lung
  GI50: 2140 nM
  TGI: 5.08 µM
NCI-H460 lung
  GI50: 1990 nM
  TGI: 3.9 µM
NCI-H522 lung
  GI50: 2340 nM
  TGI: 4.31 µM
NCI/ADR-RES ovarian
  GI50: 2340 nM
  TGI: 5.78 µM
OVCAR-3 ovarian
  GI50: 1870 nM
  TGI: 3.74 µM
OVCAR-4 ovarian
  GI50: 2210 nM
  TGI: 5.53 µM
OVCAR-5 ovarian
  GI50: 1990 nM
  TGI: 4.02 µM
PC-3 prostate
  GI50: 1750 nM
  TGI: 4.26 µM
RPMI-8226 leukemia
  GI50: 1990 nM
  TGI: 4.72 µM
RXF 393 renal
  GI50: 1730 nM
  TGI: 3.38 µM
SF-268 CNS
  GI50: 1800 nM
  TGI: 3.93 µM
SF-295 CNS
  GI50: 1930 nM
  TGI: 4.07 µM
SF-539 CNS
  GI50: 1670 nM
  TGI: 3.11 µM
SK-MEL-2 melanoma
  GI50: 1970 nM
  TGI: 3.83 µM
SK-MEL-28 melanoma
  GI50: 1850 nM
  TGI: 3.4 µM
SK-MEL-5 melanoma
  GI50: 1750 nM
  TGI: 3.16 µM
SK-OV-3 ovarian
  GI50: 2370 nM
  TGI: 5.27 µM
SN12C renal
  GI50: 1910 nM
  TGI: 4.19 µM
SNB-75 CNS
  GI50: 1310 nM
  TGI: 2850 nM
SR leukemia
  GI50: 2010 nM
  TGI: 4.65 µM
SW-620 colon
  GI50: 1990 nM
  TGI: 3.92 µM
T-47D breast
  GI50: 2120 nM
  TGI: 6.5 µM
TK-10 renal
  GI50: 5.25 µM
  TGI: 18 µM
U251 CNS
  GI50: 1730 nM
  TGI: 3.33 µM
UACC-257 melanoma
  GI50: 2180 nM
  TGI: 3.85 µM
UACC-62 melanoma
  GI50: 1870 nM
  TGI: 3.93 µM
UO-31 renal
  GI50: 1430 nM
  TGI: 3.23 µM
